{
  "source": "patent US12492195B2",
  "about": "“Preparation method for and crystal form of 3-aryloxy-3-five-membered heteroaryl-propylamine compound” (Zhangzhou Pien Tze Huang Pharmaceutical Co., Ltd., priority 2020, dated 2025)",
  "key": {"[1]": {"assay": "Hygroscopicity test by dynamic moisture absorption (DVS)", "format": "physicochemical", "protocol": "Dynamic moisture adsorption (DVS) analysis: the instrument is a DVS Intrinsic produced by SMS company (Surface Measurement Systems); temperature, 25° C.; carrier gas, flow rate: nitrogen, 200 ml/min; mass change per unit time: 0.002%/min: relative humidity range: 0/oRH-95% RH.\nDynamic moisture absorption (DVS) was used to test their hygroscopicity."}, "[2]": {"protocol": "In the experiment, the initial dosage of crystal form A of the hydrochloride salt in H2O, SGF, and FaSSIF was about 20 mg/mL, and the initial dosage in FeSSIF was about 40 mg/mL. […] The samples were sealed and mounted on a rotating disk rotating at 25 rpm, and the rotating disk was placed in a 37° C. incubator. Samples were taken at time points 1, 4 and 24 hours of equilibration, and the filtrate was separated and tested concentration by HPLC."}, "[3]": {"details": "24 hours", "protocol": "The crystal form A of the hydrochloride salt of the compound of formula Ic-1 was tested for equilibrium solubility in water for 24 hours at room temperature. The form A was dosed with about 300 mg/mL solid feed, and magnetic stirred (750 rpm) in water for 24 hours to obtain a suspension. After centrifugation, the supernatant was filtered through a 0.22-μm PTFE membrane and then tested by HPLC, and the obtained solid was tested by XRPD."}},
  "note": "Like-named read-outs stand apart in the source and are kept apart here.",
  "data": [
    {"smiles": "CNCC[C@@H](Oc1cccc2ccoc12)c1cccs1", "note": "[Form A]", "values": [
      {"measurement": "change in crystal form (XRPD) before and after the DVS test", "setting": "[1]", "value": "no change in crystal form was observed"},
      {"measurement": "solubility", "setting": "[2]; FaSSIF pH 6.5, 37° C., 1 hour", "value": 20.2, "unit": "mg/mL"},
      {"measurement": "solubility", "setting": "[2]; FaSSIF pH 6.5, 37° C., 4 hours", "value": 20.7, "unit": "mg/mL"},
      {"measurement": "solubility", "setting": "[2]; FaSSIF pH 6.5, 37° C., 24 hours", "value": 20.8, "unit": "mg/mL"},
      {"measurement": "solubility", "setting": "[2]; FeSSIF pH 5.0, 37° C., 1 hour", "value": 32.8, "unit": "mg/mL"},
      {"measurement": "solubility", "setting": "[2]; FeSSIF pH 5.0, 37° C., 4 hours", "value": 36.8, "unit": "mg/mL"},
      {"measurement": "solubility", "setting": "[2]; FeSSIF pH 5.0, 37° C., 24 hours", "value": 39.4, "unit": "mg/mL"},
      {"measurement": "solubility", "setting": "[2]; SGF pH 1.9, 37° C., 1 hour", "value": 16.5, "unit": "mg/mL"},
      {"measurement": "solubility", "setting": "[2]; SGF pH 1.9, 37° C., 4 hours", "value": 14.8, "unit": "mg/mL"},
      {"measurement": "solubility", "setting": "[2]; SGF pH 1.9, 37° C., 24 hours", "value": 11.1, "unit": "mg/mL"},
      {"measurement": "solubility", "setting": "[2]; Water, 37° C., 1 hour", "value": 16.7, "unit": "mg/mL"},
      {"measurement": "solubility", "setting": "[2]; Water, 37° C., 4 hours", "value": 17.7, "unit": "mg/mL"},
      {"measurement": "solubility", "setting": "[2]; Water, 37° C., 24 hours", "value": 17.3, "unit": "mg/mL"},
      {"measurement": "solubility in water (concentration of free state)", "setting": "[3]; room temperature", "value": "21 ± 0.5", "unit": "mg/mL"},
      {"measurement": "solubility in water converted to hydrochloride concentration", "setting": "[3]; room temperature", "value": 237.3, "unit": "mg/mL"},
      {"measurement": "solid crystal form after the equilibrium solubility test (XRPD)", "setting": "[3]; water", "value": "solid crystal form did not change"}
    ]}
  ]
}
